Reference: patent publication US20150025143A1, “BETA-HYDROXY-BETA-METHYLBUTYRIC ACID FOR IMPROVING GLUCOSE TOLERANCE” (ABBOTT LABORATORIES, priority 2012, published 2015)

Experiments:
C57BL/6J mice = test: oral glucose tolerance after nine weeks of supplemented feeding and exercise; type: in vivo; settings: 3.4 mg/g of pediatric nutritional supplement, fed nine weeks with exercise; oral glucose 2 g/Kg; compared to rodent pellet feed control, pediatric nutritional supplement control and both leucine groups (5 and 10 mg/g); FIG. 1
Method: In this Example, the effect of (1) HMB and (2) leucine on muscle glucose tolerance was analyzed in an in vivo study.
C57BL/6J mice (Charles River Laboratories, Wilmington Mass.), 21 days post-weaning, were fed either a commercially available pediatric nutritional supplement supplemented with either (1) calcium HMB or (2) leucine, and required to exercise, for nine weeks. […]
Following the nine weeks, the mice were kept overnight for fasting and body weight was recorded. […] Before glucose administration, the blood glucose was measured by tail snip using one-touch ultra Glucometer and glucose strips.
All test groups were orally administered the glucose solution at a concentration of 2 g/Kg body weight. […] After oral glucose administration, blood glucose levels were analyzed at different time points (i.e., 15, 30, 60, 90, and 120 minutes) using Glucometer and glucose strips.

[1] = system: Spragley-Dawley (SD) rats; test: effect of an acute oral dose given before a glucose load on the blood glucose spike (lowering glycemic index); type: in vivo; settings: given 30 minutes before glucose load of approximately 2 g/kg, FIG. 2
Method: In this Example, the effect of calcium HMB on lowering glycemic index was evaluated in an in vivo study. Particularly, an acute oral dose of calcium HMB was evaluated to determine whether, if given prior to a glucose load, the dose was able to blunt the initial glucose spike.
Spragley-Dawley (SD) rats (21 days post weaning) (n=7 or 8) were fed an oral dose of calcium HMB at a concentration of: 100 mg/kg (mpk), 300 mpk or 1000 mpk. After thirty minutes, the rats were then orally fed a glucose load consisting of a glucose solution having a concentration of approximately 2 g/kg body weight. A control group (n=4) was not fed the oral dose of calcium HMB prior to the glucose load.
Blood glucose levels of the rats were measured by tail snip using one-touch ultra Glucometer and glucose strips at different time points (0, 15, 30, 45, 60, 90, and 120 minutes).

**Q.** CC(C)(O)CC(=O)O.[Ca] [Calcium HMB, calcium beta-hydroxy-beta-methylbutyric acid] was tested. Which “glucose tolerance (blood glucose after oral glucose administration)” value (C57BL/6J mice) did it give?
**A.** improved glucose tolerance

**Q.** What about the “glucose spike at 15 minutes post dosing” value ([1]; 1000 mpk oral) of the same molecule?
**A.** significantly reduced glucose spike

**Q.** And the “glucose spike at early time points” value ([1]; high oral doses)?
**A.** significantly blunted glucose spike
